Source: PMC9354042, “Discovery of BRAF/HDAC Dual Inhibitors Suppressing Proliferation of Human Colorectal Cancer Cells” (Frontiers in Chemistry, 2022)
Read-outs that look alike come from different tables or passages of the source.

Assays:
Format in all cases: biochemical
HDAC2 = target: T1, HDAC2 (Homo sapiens, UniProt Q92769); assay: HDAC2 fluorescent-based enzymatic activity assay; settings: Table 3 isoform panel; read-out: Enzyme inhibition HDAC2 (Class I)
T1 construct: purchased BPS Bioscience
Procedure: (§1) The purified recombinant Human HDACs and their corresponding substrates were purchased from BPS Bioscience (BPS Bioscience Inc., United States). The assays were carried out in a 384-well format using the BPS fluorescent–based HDAC activity assay according to the manufacturer’s protocol. In brief, […] of the HDAC reaction mixture was composed of HDAC assay buffer, […] BSA, serial diluted test compounds, appropriate concentration of HDACs, and […] fluorogenic substrate, the mixture was incubated at 37°C for 60 min, and then stopped by the addition of developer containing trypsin and TSA. After 20 min of incubation, the fluorescence was detected at the excitation wavelength of 360 nm and the emission wavelength of 460 nm using the EnVision Multilabel Reader (PerkinElmer Inc., United States). The analytical software, GraphPad Prism 5.0 (GraphPad Software, Inc., United States) was used to generate IC50 value via non-linear regression analysis.

HDAC7 = target: T2, HDAC7 (Homo sapiens, UniProt Q8WUI4); assay: HDAC7 fluorescent-based enzymatic activity assay; settings: Table 3 isoform panel; read-out: Enzyme inhibition HDAC7 (Class IIA)
T2 construct: purchased BPS Bioscience
T2 sequence (Q8WUI4 1-952): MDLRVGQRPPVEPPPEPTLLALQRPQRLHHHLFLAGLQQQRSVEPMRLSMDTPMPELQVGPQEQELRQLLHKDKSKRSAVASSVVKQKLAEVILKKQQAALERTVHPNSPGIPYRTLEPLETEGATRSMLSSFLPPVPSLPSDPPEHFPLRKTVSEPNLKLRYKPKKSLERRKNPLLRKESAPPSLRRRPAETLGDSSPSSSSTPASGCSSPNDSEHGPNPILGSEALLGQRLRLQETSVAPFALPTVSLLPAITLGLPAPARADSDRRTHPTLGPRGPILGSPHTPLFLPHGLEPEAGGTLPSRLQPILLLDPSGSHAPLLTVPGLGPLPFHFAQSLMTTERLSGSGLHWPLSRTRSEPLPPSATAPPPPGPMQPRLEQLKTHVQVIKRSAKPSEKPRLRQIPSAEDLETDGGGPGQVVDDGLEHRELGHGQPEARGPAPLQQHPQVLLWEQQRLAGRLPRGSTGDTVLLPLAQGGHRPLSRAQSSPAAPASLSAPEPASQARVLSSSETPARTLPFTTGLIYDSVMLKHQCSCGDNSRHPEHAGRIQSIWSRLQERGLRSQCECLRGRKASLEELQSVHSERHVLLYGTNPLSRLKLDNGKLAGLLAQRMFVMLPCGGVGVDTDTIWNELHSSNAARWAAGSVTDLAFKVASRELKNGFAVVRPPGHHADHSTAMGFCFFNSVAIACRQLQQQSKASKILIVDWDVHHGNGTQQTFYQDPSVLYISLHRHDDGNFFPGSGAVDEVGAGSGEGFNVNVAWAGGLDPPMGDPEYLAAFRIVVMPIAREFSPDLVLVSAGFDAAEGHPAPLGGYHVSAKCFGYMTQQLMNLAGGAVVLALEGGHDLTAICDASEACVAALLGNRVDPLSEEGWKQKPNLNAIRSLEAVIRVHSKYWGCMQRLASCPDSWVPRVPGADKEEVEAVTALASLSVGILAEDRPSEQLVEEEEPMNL
Procedure: as §1

HDAC3 = target: T3, HDAC3 (Homo sapiens, UniProt O15379); assay: HDAC3 fluorescent-based enzymatic activity assay; settings: Table 3 isoform panel; read-out: Enzyme inhibition HDAC3 (Class I)
T3 construct: purchased BPS Bioscience
Procedure: as §1

HDAC6 = target: T4, HDAC6 (Homo sapiens, UniProt Q9UBN7); assay: HDAC6 fluorescent-based enzymatic activity assay
T4 construct: purchased BPS Bioscience
T4 sequence (Q9UBN7 1-1215): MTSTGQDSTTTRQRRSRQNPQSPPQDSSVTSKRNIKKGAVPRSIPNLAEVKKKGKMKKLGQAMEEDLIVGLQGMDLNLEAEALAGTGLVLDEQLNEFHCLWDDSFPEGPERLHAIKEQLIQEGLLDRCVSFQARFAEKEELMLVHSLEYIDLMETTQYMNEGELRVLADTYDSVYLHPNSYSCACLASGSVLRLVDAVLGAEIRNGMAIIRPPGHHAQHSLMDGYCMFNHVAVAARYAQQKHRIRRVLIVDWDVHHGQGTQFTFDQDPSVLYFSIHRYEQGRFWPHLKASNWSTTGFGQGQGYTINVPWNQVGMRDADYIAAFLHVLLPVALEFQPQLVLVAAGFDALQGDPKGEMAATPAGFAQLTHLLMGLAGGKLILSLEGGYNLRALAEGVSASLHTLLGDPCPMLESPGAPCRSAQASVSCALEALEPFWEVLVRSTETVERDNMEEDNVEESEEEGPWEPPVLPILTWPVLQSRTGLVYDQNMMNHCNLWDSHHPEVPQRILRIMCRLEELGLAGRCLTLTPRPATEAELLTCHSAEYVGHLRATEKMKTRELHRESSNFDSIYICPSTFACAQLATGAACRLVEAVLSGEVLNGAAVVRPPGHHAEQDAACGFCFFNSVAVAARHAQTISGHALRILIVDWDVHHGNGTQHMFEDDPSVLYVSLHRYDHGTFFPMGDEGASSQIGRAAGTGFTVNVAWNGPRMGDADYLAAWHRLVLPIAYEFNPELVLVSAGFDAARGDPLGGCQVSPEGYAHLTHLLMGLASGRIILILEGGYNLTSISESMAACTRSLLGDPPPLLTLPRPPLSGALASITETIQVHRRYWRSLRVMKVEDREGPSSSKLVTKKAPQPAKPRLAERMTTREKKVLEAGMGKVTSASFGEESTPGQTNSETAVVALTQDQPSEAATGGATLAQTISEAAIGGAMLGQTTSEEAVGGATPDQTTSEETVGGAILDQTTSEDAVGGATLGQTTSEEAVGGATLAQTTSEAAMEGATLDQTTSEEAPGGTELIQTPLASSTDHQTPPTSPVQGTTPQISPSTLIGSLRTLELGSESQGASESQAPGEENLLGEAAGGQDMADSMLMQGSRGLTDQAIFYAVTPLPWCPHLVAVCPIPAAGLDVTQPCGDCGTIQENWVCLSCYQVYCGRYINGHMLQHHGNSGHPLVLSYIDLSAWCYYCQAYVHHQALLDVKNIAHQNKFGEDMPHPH
Procedure: as §1

HDAC4 = target: T5, HDAC4 (Homo sapiens, UniProt P56524); assay: HDAC4 fluorescent-based enzymatic activity assay; settings: Table 3 isoform panel; read-out: Enzyme inhibition HDAC4 (Class IIA)
T5 construct: purchased BPS Bioscience
Procedure: as §1

T3 sequence (O15379 whole entry, canonical isoform): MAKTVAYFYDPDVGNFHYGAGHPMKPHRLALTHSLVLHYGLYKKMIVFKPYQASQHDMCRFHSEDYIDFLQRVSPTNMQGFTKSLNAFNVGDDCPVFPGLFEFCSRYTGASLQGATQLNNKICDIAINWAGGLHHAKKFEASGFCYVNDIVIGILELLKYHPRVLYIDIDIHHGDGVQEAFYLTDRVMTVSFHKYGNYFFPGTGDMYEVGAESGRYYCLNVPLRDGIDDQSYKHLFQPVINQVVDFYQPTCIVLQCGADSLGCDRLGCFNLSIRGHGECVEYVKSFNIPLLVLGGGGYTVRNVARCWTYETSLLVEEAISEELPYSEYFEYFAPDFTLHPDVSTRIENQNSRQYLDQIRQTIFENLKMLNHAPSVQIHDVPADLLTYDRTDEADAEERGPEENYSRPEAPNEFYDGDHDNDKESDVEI
T3 sequence (Q9Y618 395-489 partner limits assumed): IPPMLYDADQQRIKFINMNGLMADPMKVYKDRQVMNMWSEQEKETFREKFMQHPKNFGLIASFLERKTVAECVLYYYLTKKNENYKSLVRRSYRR
T5 sequence (P56524 whole entry, canonical isoform): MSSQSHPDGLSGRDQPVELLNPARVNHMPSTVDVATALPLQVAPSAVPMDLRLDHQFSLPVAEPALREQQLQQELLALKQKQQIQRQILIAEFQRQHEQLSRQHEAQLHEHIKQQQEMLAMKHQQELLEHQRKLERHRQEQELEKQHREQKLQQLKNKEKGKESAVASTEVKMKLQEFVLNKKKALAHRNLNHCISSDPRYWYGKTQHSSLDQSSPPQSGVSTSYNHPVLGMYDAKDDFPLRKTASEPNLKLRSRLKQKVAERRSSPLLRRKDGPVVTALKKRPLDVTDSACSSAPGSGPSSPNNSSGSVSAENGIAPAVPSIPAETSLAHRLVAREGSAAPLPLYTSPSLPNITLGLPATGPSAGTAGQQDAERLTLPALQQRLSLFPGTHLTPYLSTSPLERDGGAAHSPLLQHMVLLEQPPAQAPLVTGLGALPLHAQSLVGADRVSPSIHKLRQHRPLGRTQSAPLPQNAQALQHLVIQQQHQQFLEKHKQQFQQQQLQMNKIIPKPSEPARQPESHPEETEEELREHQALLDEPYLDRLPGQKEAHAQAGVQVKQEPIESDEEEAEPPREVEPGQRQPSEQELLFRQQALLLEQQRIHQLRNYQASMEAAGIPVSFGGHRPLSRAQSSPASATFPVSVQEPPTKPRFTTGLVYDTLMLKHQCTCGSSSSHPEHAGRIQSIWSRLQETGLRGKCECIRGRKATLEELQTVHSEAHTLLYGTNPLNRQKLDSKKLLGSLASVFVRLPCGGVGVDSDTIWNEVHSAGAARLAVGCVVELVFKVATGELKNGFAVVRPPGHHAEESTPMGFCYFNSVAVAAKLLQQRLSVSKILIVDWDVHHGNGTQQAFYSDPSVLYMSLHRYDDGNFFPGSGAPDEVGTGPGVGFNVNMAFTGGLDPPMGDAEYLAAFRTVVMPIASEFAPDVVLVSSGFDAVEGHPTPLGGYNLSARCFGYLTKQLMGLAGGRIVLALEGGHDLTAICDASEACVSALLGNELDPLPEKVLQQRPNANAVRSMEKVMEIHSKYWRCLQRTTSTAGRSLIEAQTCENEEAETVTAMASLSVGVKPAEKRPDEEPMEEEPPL
T1 sequence (Q92769 whole entry, canonical isoform): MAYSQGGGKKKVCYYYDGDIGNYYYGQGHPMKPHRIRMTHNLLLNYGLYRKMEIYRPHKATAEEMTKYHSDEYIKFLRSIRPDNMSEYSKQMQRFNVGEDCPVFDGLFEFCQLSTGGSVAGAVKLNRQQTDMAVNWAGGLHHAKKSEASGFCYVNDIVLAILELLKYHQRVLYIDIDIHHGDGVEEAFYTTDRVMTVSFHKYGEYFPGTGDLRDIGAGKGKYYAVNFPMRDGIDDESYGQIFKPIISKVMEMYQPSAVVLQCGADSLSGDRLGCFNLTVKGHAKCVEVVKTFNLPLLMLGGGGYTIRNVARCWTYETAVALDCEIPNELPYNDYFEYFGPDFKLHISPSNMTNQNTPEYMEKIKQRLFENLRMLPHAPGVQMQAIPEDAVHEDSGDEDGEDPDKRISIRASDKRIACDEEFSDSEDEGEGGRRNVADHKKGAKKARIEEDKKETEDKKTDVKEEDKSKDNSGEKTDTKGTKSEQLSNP

CC(C)(C)c1nc(-c2cccc(NS(=O)(=O)c3c(F)cccc3F)c2F)c(-c2ccnc(NCCCCCCC(=O)NO)n2)s1 [14b, 7-{[4-(2-(Tert-Butyl)-4-(3-((2,6-Difluorophenyl)Sulfonamido)-2-Fluorophenyl)Thiazol-5-yl)Pyrimidin-2-yl]Amino}-N-Hydroxyheptanamide]
IC50 (HDAC2): 747 nM | IC50 (HDAC7): 43300 nM | IC50 (HDAC3): 913 nM | HDAC6 inhibition fold more potent than class I isoforms (HDAC6; HDAC6 vs HDAC1, HDAC2, HDAC3, HDAC8): > 10 fold | HDAC6 inhibition fold more potent than class IIA HDACs (HDAC6; HDAC6 vs HDAC4, HDAC5, HDAC7): > 800 fold | IC50 (HDAC6; Table 1, read-out: Enzymatic IC50 HDAC6): 49.2 nM | IC50 (HDAC6; Table 3 isoform panel, read-out: Enzyme inhibition HDAC6 (Class IIB)): 49 nM | IC50 (HDAC4): > 100000 nM
